# Assays:
# D(3) dopamine receptor = D(3) dopamine receptor (Homo sapiens, UniProt P35462)
# [1] = target: cGMP-inhibited 3',5'-cyclic phosphodiesterase 3A (Homo sapiens, UniProt Q14432); type: functional
# [2] = target: Neuronal acetylcholine receptor subunit alpha-4 (Homo sapiens, UniProt P43681)
# [3] = target: Sodium-dependent dopamine transporter (Homo sapiens, UniProt Q01959)
# Motilin receptor = Motilin receptor (Homo sapiens, UniProt O43193)
# [4] = target: T1, Alpha-2C adrenergic receptor (Homo sapiens, UniProt P18825); type: functional
# T1 sequence (P18825 whole entry): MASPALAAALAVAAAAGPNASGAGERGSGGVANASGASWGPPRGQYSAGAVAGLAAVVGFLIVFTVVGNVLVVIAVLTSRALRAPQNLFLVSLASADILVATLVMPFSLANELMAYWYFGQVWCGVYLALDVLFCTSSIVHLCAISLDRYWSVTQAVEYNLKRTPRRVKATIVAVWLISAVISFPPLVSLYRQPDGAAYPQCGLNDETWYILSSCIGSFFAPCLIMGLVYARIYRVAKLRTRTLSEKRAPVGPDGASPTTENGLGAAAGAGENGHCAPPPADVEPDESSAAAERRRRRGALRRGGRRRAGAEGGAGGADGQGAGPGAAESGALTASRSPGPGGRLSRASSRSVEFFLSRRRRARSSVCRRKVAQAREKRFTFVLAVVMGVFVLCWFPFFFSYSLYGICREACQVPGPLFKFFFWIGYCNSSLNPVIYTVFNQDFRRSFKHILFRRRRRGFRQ
# Adenosine receptor A3 = target: T2, Adenosine receptor A3 (Homo sapiens, UniProt P0DMS8)
# T2 sequence (P0DMS8 whole entry): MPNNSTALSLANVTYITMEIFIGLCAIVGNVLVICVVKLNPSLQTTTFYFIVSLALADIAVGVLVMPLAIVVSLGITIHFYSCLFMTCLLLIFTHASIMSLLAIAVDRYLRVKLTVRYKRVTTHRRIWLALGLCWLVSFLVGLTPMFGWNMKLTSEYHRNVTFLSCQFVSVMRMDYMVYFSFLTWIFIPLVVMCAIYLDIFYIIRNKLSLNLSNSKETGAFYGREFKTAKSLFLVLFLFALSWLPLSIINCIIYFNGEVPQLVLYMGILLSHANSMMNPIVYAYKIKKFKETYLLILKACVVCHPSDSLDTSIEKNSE
# [5] = target: 5-hydroxytryptamine receptor 2B (Homo sapiens, UniProt P41595); type: functional, cell-based
# Sequence of 5-hydroxytryptamine receptor 2B (P41595 whole entry): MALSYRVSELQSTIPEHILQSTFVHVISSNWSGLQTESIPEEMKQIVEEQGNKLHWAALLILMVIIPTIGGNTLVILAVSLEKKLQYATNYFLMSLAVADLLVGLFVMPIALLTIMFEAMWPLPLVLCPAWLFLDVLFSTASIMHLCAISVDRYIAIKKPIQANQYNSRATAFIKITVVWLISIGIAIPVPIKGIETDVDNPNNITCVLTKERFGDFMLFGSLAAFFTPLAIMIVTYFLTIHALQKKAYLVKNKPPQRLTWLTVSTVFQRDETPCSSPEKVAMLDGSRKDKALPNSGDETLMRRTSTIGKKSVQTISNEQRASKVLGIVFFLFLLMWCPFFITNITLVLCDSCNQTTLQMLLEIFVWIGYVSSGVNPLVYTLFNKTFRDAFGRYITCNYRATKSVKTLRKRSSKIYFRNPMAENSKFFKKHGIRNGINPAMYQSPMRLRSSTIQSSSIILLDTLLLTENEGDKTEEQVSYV
# [6] = target: T3, Prostaglandin G/H synthase 1 (Rattus norvegicus, UniProt Q63921); type: functional
# T3 sequence (Q63921 whole entry): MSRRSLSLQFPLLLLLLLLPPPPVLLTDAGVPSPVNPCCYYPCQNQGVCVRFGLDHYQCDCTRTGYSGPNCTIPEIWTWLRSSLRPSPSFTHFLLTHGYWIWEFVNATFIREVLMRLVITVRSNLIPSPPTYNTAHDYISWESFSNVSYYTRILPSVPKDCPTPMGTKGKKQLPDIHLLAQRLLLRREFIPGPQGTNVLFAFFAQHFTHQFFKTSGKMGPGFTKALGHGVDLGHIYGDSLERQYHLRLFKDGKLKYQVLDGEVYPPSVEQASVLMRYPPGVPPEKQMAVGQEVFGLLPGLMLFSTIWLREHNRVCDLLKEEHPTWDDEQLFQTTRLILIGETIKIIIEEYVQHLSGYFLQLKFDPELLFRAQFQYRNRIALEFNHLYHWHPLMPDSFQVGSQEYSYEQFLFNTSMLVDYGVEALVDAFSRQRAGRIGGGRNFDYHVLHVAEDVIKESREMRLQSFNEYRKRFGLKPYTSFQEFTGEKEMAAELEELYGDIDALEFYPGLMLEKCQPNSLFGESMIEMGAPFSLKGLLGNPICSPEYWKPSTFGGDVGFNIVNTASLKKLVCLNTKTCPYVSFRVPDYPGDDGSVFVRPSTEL
# [7] = target: T4, Alpha-2A adrenergic receptor (Homo sapiens, UniProt P08913); type: functional, cell-based
# T4 sequence (P08913 whole entry): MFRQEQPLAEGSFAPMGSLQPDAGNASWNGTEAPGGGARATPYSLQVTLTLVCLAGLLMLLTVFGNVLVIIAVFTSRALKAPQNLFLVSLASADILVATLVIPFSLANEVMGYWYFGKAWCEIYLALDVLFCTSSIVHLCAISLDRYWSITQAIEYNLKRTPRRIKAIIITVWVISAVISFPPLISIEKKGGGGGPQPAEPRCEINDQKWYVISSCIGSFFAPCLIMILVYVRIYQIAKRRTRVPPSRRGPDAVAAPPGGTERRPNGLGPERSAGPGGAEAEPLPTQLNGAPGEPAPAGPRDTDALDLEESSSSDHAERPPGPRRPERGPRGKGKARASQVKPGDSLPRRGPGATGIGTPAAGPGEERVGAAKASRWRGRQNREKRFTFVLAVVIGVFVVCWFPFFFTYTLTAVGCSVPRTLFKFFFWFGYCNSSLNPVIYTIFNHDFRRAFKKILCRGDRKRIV
# [8] = target: T5, 5-hydroxytryptamine receptor 3A (Homo sapiens, UniProt P46098); type: functional
# T5 sequence (P46098 whole entry): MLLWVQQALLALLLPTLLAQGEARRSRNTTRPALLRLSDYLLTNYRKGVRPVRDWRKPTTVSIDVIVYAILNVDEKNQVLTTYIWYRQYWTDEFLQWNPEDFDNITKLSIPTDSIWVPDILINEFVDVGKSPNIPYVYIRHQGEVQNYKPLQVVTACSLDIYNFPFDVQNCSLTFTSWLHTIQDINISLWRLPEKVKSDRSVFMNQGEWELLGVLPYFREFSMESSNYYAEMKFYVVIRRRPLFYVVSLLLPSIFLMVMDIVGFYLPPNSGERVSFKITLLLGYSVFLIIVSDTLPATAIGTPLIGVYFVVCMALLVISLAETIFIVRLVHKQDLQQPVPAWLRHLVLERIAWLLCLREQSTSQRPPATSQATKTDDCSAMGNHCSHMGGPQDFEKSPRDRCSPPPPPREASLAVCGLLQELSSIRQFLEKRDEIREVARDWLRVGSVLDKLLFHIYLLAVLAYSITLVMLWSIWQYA
# Note: assay procedure not described here.
# Sequence of D(3) dopamine receptor (P35462 whole entry): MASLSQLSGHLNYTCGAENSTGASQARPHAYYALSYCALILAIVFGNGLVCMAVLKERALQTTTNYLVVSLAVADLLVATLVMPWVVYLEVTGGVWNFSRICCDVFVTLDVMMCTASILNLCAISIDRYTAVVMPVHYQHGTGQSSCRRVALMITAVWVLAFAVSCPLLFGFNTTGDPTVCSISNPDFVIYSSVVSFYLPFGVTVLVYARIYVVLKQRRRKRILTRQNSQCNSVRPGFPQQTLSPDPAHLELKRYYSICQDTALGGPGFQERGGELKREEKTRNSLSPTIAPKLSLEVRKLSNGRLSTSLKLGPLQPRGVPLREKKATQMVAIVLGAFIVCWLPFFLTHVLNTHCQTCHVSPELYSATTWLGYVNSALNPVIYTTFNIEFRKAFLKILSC
# Sequence of Sodium-dependent dopamine transporter (Q01959 whole entry): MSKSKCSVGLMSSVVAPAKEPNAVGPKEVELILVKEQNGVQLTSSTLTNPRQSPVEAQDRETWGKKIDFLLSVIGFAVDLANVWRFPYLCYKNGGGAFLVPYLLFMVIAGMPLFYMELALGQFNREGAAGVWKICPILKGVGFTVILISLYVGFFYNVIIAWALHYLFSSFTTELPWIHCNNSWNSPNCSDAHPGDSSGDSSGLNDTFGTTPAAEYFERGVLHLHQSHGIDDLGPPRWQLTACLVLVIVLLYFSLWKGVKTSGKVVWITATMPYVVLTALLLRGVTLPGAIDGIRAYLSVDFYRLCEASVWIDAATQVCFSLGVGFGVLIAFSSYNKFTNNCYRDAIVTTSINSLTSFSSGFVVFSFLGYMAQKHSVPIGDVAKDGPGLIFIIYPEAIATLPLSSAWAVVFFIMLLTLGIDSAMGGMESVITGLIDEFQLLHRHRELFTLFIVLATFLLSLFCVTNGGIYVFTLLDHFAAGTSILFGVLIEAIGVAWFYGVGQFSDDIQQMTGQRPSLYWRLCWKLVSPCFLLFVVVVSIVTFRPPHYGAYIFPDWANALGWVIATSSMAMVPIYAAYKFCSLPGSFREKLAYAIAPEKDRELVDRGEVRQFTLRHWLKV
# Sequence of Motilin receptor (O43193 whole entry): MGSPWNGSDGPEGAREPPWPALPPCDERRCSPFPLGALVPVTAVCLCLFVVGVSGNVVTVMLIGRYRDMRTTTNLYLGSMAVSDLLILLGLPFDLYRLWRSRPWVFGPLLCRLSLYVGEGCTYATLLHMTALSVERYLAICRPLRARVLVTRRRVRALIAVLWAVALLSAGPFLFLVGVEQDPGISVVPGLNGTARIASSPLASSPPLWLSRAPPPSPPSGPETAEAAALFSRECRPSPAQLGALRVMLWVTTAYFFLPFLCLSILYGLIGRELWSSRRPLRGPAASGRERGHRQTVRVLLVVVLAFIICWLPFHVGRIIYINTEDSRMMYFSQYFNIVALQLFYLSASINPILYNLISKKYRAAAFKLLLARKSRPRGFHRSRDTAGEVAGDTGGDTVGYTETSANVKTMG
# Sequence of cGMP-inhibited 3',5'-cyclic phosphodiesterase 3A (Q14432 whole entry): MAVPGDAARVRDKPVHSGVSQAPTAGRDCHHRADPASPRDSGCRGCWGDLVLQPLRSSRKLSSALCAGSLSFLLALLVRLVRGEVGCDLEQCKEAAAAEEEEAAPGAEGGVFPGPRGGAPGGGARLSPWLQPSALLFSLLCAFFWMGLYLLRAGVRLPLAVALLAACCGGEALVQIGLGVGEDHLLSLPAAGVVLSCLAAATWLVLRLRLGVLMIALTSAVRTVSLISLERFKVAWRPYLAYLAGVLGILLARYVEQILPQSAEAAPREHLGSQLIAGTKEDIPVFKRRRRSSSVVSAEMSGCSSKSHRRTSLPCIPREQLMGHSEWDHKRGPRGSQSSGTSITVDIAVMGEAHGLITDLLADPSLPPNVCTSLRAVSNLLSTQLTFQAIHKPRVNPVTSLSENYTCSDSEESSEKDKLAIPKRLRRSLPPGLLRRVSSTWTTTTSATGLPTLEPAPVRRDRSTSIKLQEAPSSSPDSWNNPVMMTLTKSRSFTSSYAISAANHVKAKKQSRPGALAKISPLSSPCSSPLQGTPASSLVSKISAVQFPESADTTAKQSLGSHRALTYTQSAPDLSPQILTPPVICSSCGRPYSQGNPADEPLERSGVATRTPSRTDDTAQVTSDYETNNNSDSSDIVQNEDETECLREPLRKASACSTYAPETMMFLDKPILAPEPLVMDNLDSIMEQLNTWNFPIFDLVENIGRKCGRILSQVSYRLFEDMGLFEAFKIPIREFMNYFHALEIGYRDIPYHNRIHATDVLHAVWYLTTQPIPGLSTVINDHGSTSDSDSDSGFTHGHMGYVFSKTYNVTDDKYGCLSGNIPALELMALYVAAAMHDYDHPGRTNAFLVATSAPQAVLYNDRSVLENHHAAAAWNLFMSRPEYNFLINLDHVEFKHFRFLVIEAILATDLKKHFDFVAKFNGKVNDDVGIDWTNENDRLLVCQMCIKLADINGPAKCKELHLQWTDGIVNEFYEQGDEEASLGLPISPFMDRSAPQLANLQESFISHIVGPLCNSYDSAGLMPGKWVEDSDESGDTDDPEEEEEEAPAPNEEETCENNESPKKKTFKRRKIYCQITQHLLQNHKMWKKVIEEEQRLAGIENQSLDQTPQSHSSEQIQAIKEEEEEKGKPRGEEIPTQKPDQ
# Sequence of Neuronal acetylcholine receptor subunit alpha-4 (P43681 whole entry): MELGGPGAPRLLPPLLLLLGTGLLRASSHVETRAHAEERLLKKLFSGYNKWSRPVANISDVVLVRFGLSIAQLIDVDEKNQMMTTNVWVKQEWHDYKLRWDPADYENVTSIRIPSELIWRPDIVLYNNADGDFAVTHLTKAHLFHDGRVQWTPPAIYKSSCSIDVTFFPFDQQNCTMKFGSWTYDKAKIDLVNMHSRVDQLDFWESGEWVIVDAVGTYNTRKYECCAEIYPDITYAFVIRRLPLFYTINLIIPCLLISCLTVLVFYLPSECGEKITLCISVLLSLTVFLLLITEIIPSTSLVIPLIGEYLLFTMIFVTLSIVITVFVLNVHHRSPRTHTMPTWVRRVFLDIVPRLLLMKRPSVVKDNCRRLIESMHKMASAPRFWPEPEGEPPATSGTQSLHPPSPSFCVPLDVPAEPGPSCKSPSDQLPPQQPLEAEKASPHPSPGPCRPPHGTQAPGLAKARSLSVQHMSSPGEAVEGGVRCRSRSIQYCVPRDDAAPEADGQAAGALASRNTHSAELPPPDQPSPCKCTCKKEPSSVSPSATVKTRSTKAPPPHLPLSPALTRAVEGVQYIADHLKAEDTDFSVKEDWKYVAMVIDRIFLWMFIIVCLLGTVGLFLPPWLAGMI
Structure (SMILES),AC50 (D(3) dopamine receptor),AC50 [1],AC50 [2],AC50 [3],AC50 (Motilin receptor),AC50 [4],AC50 (Adenosine receptor A3),AC50 [5],AC50 [6],AC50 [7],AC50 [8]
Nc1nc(N)c2nc(-c3ccccc3)c(N)nc2n1,> 30 µM,> 30 µM,> 30 µM,> 30 µM,> 30 µM,> 30 µM,> 30 µM,> 30 µM,> 30 µM,> 30 µM,> 30 µM
CN(C)CCCN1c2ccccc2CCc2ccc(Cl)cc21 [CLOMIPRAMINE],0.3 µM,–,> 10 µM,14.6 µM,–,–,–,5.6 µM,–,> 10 µM,> 30 µM
NS(=O)(=O)c1cc2c(cc1Cl)NCNS2(=O)=O [HYDROCHLOROTHIAZIDE],> 10 µM,> 30 µM,> 10 µM,> 10 µM,> 10 µM,> 10 µM,> 30 µM,> 10 µM,> 30 µM,> 10 µM,> 10 µM
CC(=O)OCC(=O)[C@@]1(O)CC[C@H]2[C@@H]3CCC4=CC(=O)CC[C@]4(C)[C@H]3C(=O)C[C@@]21C [CORTISONE ACETATE],–,–,–,–,–,> 30 µM,–,> 30 µM,–,–,> 30 µM
NC1=NC(=O)C(c2ccccc2)O1 (centres undefined) [PEMOLINE],> 30 µM,> 30 µM,> 10 µM,3.46 µM,> 10 µM,> 10 µM,> 30 µM,> 10 µM,> 30 µM,> 10 µM,> 30 µM
N[C@@H](C(=O)N[C@@H]1C(=O)N2C(C(=O)O)=C(Cl)CS[C@H]12)c1ccccc1 [CEFACLOR ANHYDROUS],> 30 µM,> 30 µM,> 30 µM,> 30 µM,> 30 µM,> 30 µM,24 µM,> 30 µM,> 30 µM,> 30 µM,> 30 µM
CCN(CC)CCNC(=O)c1cc(Cl)c(N)cc1OC [METOCLOPRAMIDE],0.076 µM,> 30 µM,> 10 µM,> 10 µM,> 10 µM,3 µM,> 30 µM,4.3 µM,> 30 µM,> 10 µM,3.55 µM
CCc1nn(CCCN2CCN(c3cccc(Cl)c3)CC2)c(=O)n1CCOc1ccccc1 [NEFAZODONE],1.2 µM,> 10 µM,–,–,> 10 µM,0.63 µM,11.9 µM,1.1 µM,> 30 µM,–,> 10 µM
O=C(O)c1cc(-c2ccc(F)cc2F)ccc1O [DIFLUNISAL],> 30 µM,> 30 µM,> 10 µM,> 10 µM,> 10 µM,> 10 µM,> 10 µM,> 10 µM,> 10 µM,> 10 µM,> 30 µM
COc1cc(Nc2c(C#N)cnc3cc(OCCCN4CCN(C)CC4)c(OC)cc23)c(Cl)cc1Cl [BOSUTINIB],5.6 µM,> 30 µM,> 10 µM,8.75 µM,> 10 µM,1 µM,10.3 µM,–,> 30 µM,–,> 10 µM
CC(N)Cc1ccccc1 (centres undefined) [AMPHETAMINE],> 30 µM,> 30 µM,> 30 µM,–,> 30 µM,> 30 µM,> 30 µM,> 30 µM,> 30 µM,> 30 µM,> 30 µM
C#C[C@]1(O)CC[C@H]2[C@@H]3CCc4cc(O)ccc4[C@H]3CC[C@@]21C [ETHINYL ESTRADIOL],> 10 µM,16 µM,–,2.81 µM,> 10 µM,> 10 µM,13.5 µM,18 µM,24.3 µM,> 10 µM,> 30 µM
CN1CCCC(n2nc(Cc3ccc(Cl)cc3)c3ccccc3c2=O)CC1 (centres undefined) [AZELASTINE],6.5 µM,> 30 µM,17 µM,7.3 µM,> 30 µM,2.4 µM,> 30 µM,–,> 30 µM,0.86 µM,2.4 µM
CCc1ccc(CCOc2ccc(CC3SC(=O)NC3=O)cc2)nc1 (centres undefined) [PIOGLITAZONE],> 10 µM,> 30 µM,–,> 30 µM,> 10 µM,> 10 µM,> 30 µM,> 10 µM,> 30 µM,> 10 µM,> 10 µM
CNC(=O)c1cc(Oc2ccc(NC(=O)Nc3ccc(Cl)c(C(F)(F)F)c3)cc2)ccn1 [SORAFENIB],> 30 µM,> 30 µM,> 30 µM,6.85 µM,2.8 µM,> 30 µM,1.88 µM,–,> 30 µM,> 30 µM,> 30 µM
NC(N)=Nc1nc(CSCCC(N)=NS(N)(=O)=O)cs1 [FAMOTIDINE],> 10 µM,> 10 µM,–,> 10 µM,> 10 µM,> 10 µM,> 30 µM,> 10 µM,> 30 µM,> 10 µM,> 10 µM
Cc1cccc(C)c1OCC(C)N (centres undefined) [MEXILETINE],–,> 30 µM,> 30 µM,> 30 µM,> 30 µM,> 30 µM,> 30 µM,8.5 µM,> 10 µM,> 30 µM,–
COc1cc2c(cc1OC)C(=O)C(CC1CCN(Cc3ccccc3)CC1)C2 (centres undefined) [DONEPEZIL],–,> 30 µM,> 10 µM,> 30 µM,> 10 µM,6.2 µM,> 30 µM,–,> 30 µM,> 10 µM,> 30 µM
O=C(NC[C@H]1CN(c2ccc(N3CCOCC3=O)cc2)C(=O)O1)c1ccc(Cl)s1 [RIVAROXABAN],> 30 µM,> 30 µM,–,> 30 µM,–,> 30 µM,> 30 µM,> 30 µM,> 30 µM,> 30 µM,> 30 µM
